Laboratory results reported in patent US10160747B2, “Compounds and methods for kinase modulation, and indications therefor” (Plexxikon Inc., priority 2016, dated 2018).
Where a chain is given by its changes, count along the chain named.

Assays:
BaF3-FLT3-ITD-F691L = target: T1, BaF3-FLT3-ITD-F691L (Homo sapiens, UniProt P36888, F691L, cells depend on it, form not given); experiment: Cell Assay CS0047: BaF3-FLT3-ITD-F691L CTB; assay type: cell-based, murine; details: three day growth assay in the absence of IL3; read-out: Cell Assay: CS0047: BaF3-FLT3-ITD-F691L CTB:IC50
T1 sequence (P36888 with tags, fused parts or gaps INS600HVDFREYEYD/F691L): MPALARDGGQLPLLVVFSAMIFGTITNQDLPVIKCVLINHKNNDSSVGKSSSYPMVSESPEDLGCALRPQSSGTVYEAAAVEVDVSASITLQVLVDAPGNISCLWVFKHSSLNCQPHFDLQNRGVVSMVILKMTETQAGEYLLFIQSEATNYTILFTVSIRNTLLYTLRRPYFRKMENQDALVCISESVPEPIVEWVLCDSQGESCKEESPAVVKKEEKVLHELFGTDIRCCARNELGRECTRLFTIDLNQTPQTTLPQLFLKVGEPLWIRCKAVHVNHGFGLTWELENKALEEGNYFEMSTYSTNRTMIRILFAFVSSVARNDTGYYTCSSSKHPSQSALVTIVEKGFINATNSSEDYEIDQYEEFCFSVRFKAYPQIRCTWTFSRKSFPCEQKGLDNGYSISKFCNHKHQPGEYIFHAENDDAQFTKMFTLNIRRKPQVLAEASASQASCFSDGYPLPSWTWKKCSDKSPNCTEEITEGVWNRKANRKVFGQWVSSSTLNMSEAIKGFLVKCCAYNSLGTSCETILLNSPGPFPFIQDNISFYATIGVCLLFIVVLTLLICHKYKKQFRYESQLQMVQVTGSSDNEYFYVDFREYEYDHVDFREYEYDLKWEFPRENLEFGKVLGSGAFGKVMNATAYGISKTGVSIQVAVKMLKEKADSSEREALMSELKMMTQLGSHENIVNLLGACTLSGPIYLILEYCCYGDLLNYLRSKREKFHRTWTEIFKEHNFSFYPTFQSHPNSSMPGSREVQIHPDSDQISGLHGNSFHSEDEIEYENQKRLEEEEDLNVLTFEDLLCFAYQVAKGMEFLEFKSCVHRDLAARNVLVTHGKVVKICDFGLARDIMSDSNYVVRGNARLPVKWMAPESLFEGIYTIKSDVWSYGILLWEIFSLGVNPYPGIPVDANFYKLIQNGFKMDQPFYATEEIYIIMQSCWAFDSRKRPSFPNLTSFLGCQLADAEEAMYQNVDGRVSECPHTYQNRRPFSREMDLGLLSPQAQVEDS
Description: (§1) The BaF3 assays as developed used to generate the data in Tables 7 and 8 are identical and differ only in minor details in regards to vector design, not biological function. Both introduce the FLT3 gene with MV4-11 based ITD duplications and resistance mutations from an exogenous promoter (MSCV and CMV respectively) in the exact same cell line.
(§2) As a result of the expressed FLT3 protein, the IL3 factor dependent BaF3 cell clones become IL3-factor independent.
(§3) The compounds in Tables 7 and 8 were tested in an identical fashion by incubating such clones in with increasing concentrations. Inhibition of the FLT3 activity by an inhibitor results in factor dependency, which in the absence of IL3 results in cell death in the three day growth assays.

BaF3-FLT3-ITD-D835V = target: T2, BaF3-FLT3-ITD-D835V (Homo sapiens, UniProt P36888, D835V, cells depend on it, form not given); experiment: Cell Assay CS0048: BaF3-FLT3-ITD-D835V CTB; assay type: cell-based, murine; details: three day growth assay in the absence of IL3; read-out: Cell Assay: CS0048: BaF3-FLT3-ITD-D835V CTB:IC50
T2 sequence (P36888 with tags, fused parts or gaps INS600HVDFREYEYD/D835V): T1 sequence (P36888 with tags, fused parts or gaps INS600HVDFREYEYD/F691L) with L701F, D845V
Description: as §1, §2, §3

BaF3_FLT3_ITD/F691L = target: T3, BaF3_FLT3_ITD/F691L (Homo sapiens, UniProt P36888, F691L, cells depend on it, form not given); experiment: Engineered BaF3 cell growth assay, FLT3 ITD/F691L; assay type: cell-based, murine; details: three day growth assay in the absence of IL3
T3 sequence (P36888 with tags, fused parts or gaps INS600HVDFREYEYD/F691L): T1 sequence (P36888 with tags, fused parts or gaps INS600HVDFREYEYD/F691L)
Description: The FLT3 inhibitors may be assessed using the MOLM-14, Acute Myeloid Leukemia cell line that endogenously expresses FLT3 ITD or derivatives of the human FLT3 AML cell line which acquired the D835Y (activation loop) of F691L (gatekeeper) mutation after selection in escalating doses of the FLT3 Inhibitor AC220. FLT3 inhibitors may also be assessed using cells that are engineered to express mutant FLT3. For engineered cells, murine Ba/F3 cells were transfected with full-length FLT3 ITD/D835Y mutations. The parental BA/F3 cells are dependent upon Interleukin-3 (IL-3) for survival, and introduction of the FLT3 constructs rendered these cells dependent upon FLT3 kinase activity when cultured in the absences of IL-3. Engineered BA/F3 cell growth assays can be performed in either the […] of IL-3, to assess the compound inhibition of FLT3 or to detect the presence of off-target activity, respectively. Inhibitors of FLT3 kinase activity reduce or eliminate the FLT3 oncogenic signaling, resulting in reduced cell proliferation. This inhibition is measured as a function of compound concentration to assess IC50 values.
Cells were seeded at 1×10^4 cells per well of a 96 well cell culture plate in 50 μl of cell culture medium. Compounds were dissolved in DMSO, typically at a concentration of 0.5 mM and were serially diluted 1:3 for a total of eight points and added to the cells to final concentrations of […], 0.0041, 0.0014 and 0.00046 μM in 100 μl cell culture medium (final concentration 0.2% DMSO). […] The cells were incubated at 37° C., 5% CO2 for three days. CellTiter-Glo Buffer (Promega Cell Viability Assay catalog #G7573) and substrate were equilibrated to room temperature, and enzyme/substrate Recombinant Firefly Luciferase/Beetle Luciferin was reconstituted. […] The plates were read on a Tecan M1000 using Luminescence protocol modified to read 0.1 s per well. The luminescence reading assesses the ATP content, which correlates directly with cell number such that the reading as a function of compound concentration was used to determine the IC50 value. […]

BA/F3-FLT3-ITD + D835Y = target: T4, BA/F3-FLT3-ITD + D835Y (Homo sapiens, UniProt P36888, D835Y, cells depend on it, form not given); experiment: Engineered BA/F3 cell growth assay, FLT3 ITD/D835Y; assay type: cell-based, murine; details: three day growth assay in the absence of IL3; read-out: BaF3_FLT3_ITD/D835Y
T4 sequence (P36888 with tags, fused parts or gaps INS600HVDFREYEYD/D835Y): T1 sequence (P36888 with tags, fused parts or gaps INS600HVDFREYEYD/F691L) with L701F, D845Y
Procedure, shortened: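 Murine Ba/F3 cells transfected with full-length FLT3 ITD/D835Y, grown without IL-3 so growth depends on FLT3. Seeded at 1×10^4 cells/well, 8-point 1:3 series to 1 μM top (0.2% DMSO), 3 days at 37 °C. CellTiter-Glo luminescence (ATP) versus concentration gave IC50.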

[1] = tested on: leukemia cell that express either wild type FLT3 or FLT3-ITD mutations; details: cells expressing wild type FLT3 or FLT3-ITD mutations; cited from earlier work
[2] = tested on: quizartinib resistance-causing mutants; details: FLT3-ITD KD mutants, in addition to other mutant isoforms; cited from earlier work

Row | Structure (SMILES) | GI50 (BaF3-FLT3-ITD-F691L) [nM] | GI50 (BaF3-FLT3-ITD-D835V) [nM] | GI50 (BaF3_FLT3_ITD/F691L) [nM] | GI50 (BA/F3-FLT3-ITD + D835Y) [nM] | also measured
1 | CC(C)(c1cc(NC(=O)Cc2ccc(-c3ccc(NCCN4CCOCC4)nc3)cc2)no1)C(F)(F)F | 73.9 | 145 |  |  | 
2 | Cn1cc(Nc2ncc(-c3ccc(CC(=O)Nc4ccnc(C(F)(F)F)c4)cc3)cn2)cn1 [drawing 325] |  |  | 0.313 | 0.108 | 
3 | Cn1cc(Nc2ncc(-c3ccc(CC(=O)Nc4cccc(C(F)(F)F)c4)cc3)cn2)cn1 [drawing 326] |  |  | 1.54 | 0.462 | 
4 | C=CCNC1=C2C[C@@H](C)C[C@H](OC)[C@H](O)[C@@H](C)/C=C(\C)[C@H](OC(N)=O)[C@@H](OC)/C=C\C=C(/C)C(=O)NC(=CC1=O)C2=O [17″AAG, 17AAG] |  |  |  |  | growth of leukemia cells [1]: inhibited
5 | CNc1ccc(-c2ccc(CC(=O)Nc3cc(C(C)(C)C)on3)cc2)cn1 | 43.2 | 92 |  |  | 
6 | CC(C)(C)c1cc(NC(=O)Nc2ccc(-c3cnc(NC4CCOCC4)nc3)cn2)no1 | 110 | 673 |  |  | 
7 | Cn1cc(Nc2ncc(-c3ccc(CC(=O)Nc4ccc(C(C)(C)C)nc4)cc3)cn2)cn1 [drawing 327] |  |  | 0.434 | 0.444 | 
8 | CCNc1ccc(-c2ccc(CC(=O)Nc3cc(C(C)(C)C)on3)cc2)cn1 | 45.4 | 94.2 |  |  | 
9 | CC(C)(C)c1cc(NC(=O)Nc2ccc(-c3cnc(NC4CC4)nc3)cn2)no1 | 77.8 | 585 |  |  | 
10 | CNC(=O)c1cc(Oc2ccc(NC(=O)Nc3ccc(Cl)c(C(F)(F)F)c3)cc2)ccn1 [sorafenib] |  |  |  |  | activity against identified quizartinib resistance-causing mutants [2]: ineffective
